Experimental data: patent US7074789B2, “Kinase inhibitors” (Amgen Inc., priority 1999, dated 2006)

Assays:
Format in all cases: biochemical
Lyn = target: T1, Lyn (Homo sapiens, UniProt P07948); assay: Kinase inhibition assay (33P transfer), Lyn; conditions: Table 6, Lyn-1 kinase inhibition class
T1 construct: Kinases are expressed as either kinase domains or full length constructs; made in house
Summary of the method: (§1)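 Read-out: scintillation counts of 33P moved from ATP onto synthetic peptide polymer coated on the well surface, after washing with 0.5% phosphoric acid. Enzymes were tagged (GST or polyHistidine) and came from bacterial or insect-cell expression. IC50 marks 50% loss of incorporated label.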

ErbB2 = target: T2, ErbB2 (Homo sapiens, UniProt P04626); assay: Kinase inhibition assay (33P transfer), ErbB2; conditions: read-out: ErbB2-2
T2 construct: Kinases are expressed as either kinase domains or full length constructs; made in house
Summary of the method: as §1

EGFR = target: T3, EGFR (Homo sapiens, UniProt P00533); assay: Kinase inhibition assay (33P transfer), EGFR; conditions: Table 2, kinase inhibition class; read-out: EGFR-1
T3 construct: Kinases are expressed as either kinase domains or full length constructs; made in house
Summary of the method: as §1

Flt-1 = target: T4, Flt-1 (Homo sapiens, UniProt P17948); assay: Kinase inhibition assay (33P transfer), Flt-1
T4 construct: Kinases are expressed as either kinase domains or full length constructs; made in house
Summary of the method: as §1

Zap-70 = target: T5, Zap-70 (Homo sapiens, UniProt P43403); assay: Kinase inhibition assay (33P transfer), Zap-70; conditions: read-out: Zap-1
T5 construct: Kinases are expressed as either kinase domains or full length constructs; made in house
T5 sequence (P43403 1-619): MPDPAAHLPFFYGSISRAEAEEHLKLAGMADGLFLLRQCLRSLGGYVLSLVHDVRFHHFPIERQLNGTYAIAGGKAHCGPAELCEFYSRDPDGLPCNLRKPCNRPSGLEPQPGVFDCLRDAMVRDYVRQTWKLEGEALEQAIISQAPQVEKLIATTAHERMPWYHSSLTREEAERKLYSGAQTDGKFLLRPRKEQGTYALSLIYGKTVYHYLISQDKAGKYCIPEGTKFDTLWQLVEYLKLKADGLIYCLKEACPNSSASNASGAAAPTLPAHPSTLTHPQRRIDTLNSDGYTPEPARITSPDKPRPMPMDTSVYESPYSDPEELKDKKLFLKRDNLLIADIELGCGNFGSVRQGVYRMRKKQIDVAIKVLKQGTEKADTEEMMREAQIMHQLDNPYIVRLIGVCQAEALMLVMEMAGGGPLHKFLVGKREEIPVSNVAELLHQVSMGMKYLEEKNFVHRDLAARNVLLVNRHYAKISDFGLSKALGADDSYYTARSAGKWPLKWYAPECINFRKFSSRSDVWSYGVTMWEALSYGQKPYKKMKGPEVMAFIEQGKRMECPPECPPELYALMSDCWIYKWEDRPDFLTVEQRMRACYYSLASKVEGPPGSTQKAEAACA
Summary of the method: (§2)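 Liquid scintillation counting of 33P on plate-bound synthetic substrates gives kinase activity. Plates are washed in 0.5% phosphoric acid first; kinases are tagged recombinant proteins from E. coli or baculovirus-infected High Five cells.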

IGFR-1 = target: T6, IGFR-1 (Homo sapiens, UniProt P08069); assay: Kinase inhibition assay, IGFR-1 (Table 2); conditions: Table 2, kinase inhibition class
T6 construct: Kinases are expressed as either kinase domains or full length constructs; made in house

AKT = target: T7, AKT (Homo sapiens, UniProt Q9Y243); assay: Kinase inhibition assay (33P transfer), AKT; conditions: Table 2, kinase inhibition class; read-out: AKT3-1
T7 construct: Kinases are expressed as either kinase domains or full length constructs; made in house
T7 sequence (Q9Y243 whole entry, the tested form may be a part): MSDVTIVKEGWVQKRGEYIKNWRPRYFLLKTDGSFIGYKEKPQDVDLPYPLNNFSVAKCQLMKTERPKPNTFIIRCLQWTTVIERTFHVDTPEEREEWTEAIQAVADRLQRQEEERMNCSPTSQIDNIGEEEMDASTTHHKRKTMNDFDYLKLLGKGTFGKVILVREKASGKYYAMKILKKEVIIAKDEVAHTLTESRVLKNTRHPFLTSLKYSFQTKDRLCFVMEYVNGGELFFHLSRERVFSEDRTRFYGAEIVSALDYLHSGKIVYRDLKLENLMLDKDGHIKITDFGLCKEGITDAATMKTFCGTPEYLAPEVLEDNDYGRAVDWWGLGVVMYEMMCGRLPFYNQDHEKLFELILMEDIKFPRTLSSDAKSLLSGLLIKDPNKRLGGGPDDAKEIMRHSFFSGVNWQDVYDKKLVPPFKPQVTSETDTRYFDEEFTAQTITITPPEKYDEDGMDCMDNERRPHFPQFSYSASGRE
Summary of the method: as §2

Hck-1 = target: T8, Hck-1 (Homo sapiens, UniProt P08631); assay: Kinase inhibition assay (33P transfer), Hck; conditions: Table 6, Hck-1 kinase inhibition class
T8 construct: Kinases are expressed as either kinase domains or full length constructs; made in house
T8 sequence (P08631 whole entry, the tested form may be a part): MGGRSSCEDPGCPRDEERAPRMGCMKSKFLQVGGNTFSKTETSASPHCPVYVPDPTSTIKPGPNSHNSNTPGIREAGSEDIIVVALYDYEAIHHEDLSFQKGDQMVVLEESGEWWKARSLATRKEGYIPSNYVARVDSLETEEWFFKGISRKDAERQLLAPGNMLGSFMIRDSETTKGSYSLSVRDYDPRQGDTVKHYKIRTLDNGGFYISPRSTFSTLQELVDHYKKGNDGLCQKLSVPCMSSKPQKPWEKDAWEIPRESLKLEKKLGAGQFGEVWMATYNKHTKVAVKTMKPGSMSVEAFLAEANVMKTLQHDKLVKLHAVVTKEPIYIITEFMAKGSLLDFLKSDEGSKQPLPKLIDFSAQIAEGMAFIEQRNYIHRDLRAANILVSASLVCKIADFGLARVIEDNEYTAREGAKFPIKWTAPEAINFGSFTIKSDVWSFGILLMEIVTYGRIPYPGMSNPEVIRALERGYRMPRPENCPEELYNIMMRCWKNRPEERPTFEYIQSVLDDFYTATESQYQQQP

Itk = target: T9, Itk (Homo sapiens, UniProt Q08881); assay: Kinase inhibition assay (33P transfer), Itk; conditions: read-out: Itk-1
T9 construct: Kinases are expressed as either kinase domains or full length constructs; made in house
T9 sequence (Q08881 1-620): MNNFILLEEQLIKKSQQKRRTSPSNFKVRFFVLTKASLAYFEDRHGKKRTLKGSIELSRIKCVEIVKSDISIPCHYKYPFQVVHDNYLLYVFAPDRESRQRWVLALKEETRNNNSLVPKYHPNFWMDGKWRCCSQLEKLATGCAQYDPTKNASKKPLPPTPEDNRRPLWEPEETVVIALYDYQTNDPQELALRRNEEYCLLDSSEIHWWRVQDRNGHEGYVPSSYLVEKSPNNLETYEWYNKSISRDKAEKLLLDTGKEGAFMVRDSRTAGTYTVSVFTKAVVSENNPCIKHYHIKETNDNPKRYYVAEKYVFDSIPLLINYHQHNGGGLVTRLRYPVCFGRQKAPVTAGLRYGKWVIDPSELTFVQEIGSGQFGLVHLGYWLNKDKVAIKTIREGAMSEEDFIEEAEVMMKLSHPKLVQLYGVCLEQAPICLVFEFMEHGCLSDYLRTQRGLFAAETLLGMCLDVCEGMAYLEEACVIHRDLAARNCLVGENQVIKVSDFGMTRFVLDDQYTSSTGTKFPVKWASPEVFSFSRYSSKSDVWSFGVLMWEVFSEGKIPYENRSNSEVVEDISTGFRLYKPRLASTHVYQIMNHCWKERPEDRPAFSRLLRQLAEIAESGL
Summary of the method: as §1

Tek = target: T10, Tek (Homo sapiens, UniProt Q02763); assay: Kinase inhibition assay (33P transfer), Tek; conditions: read-out: Tek-1
T10 construct: Kinases are expressed as either kinase domains or full length constructs; made in house
Summary of the method: as §1

PDGFRB = target: T11, PDGFRB (Homo sapiens, UniProt P09619); assay: Kinase inhibition assay (33P transfer), PDGFRB; conditions: read-out: PDGFRB-1
T11 construct: Kinases are expressed as either kinase domains or full length constructs; made in house

FGFR1 = target: T12, FGFR1 (Homo sapiens, UniProt P11362); assay: Kinase inhibition assay (33P transfer), FGFR1; conditions: read-out: FGFR1-1
T12 construct: Kinases are expressed as either kinase domains or full length constructs; made in house

c-Met = target: T13, c-Met (Homo sapiens, UniProt P08581); assay: Kinase inhibition assay (33P transfer), c-Met; conditions: Table 2, kinase inhibition class; read-out: Met-1
T13 construct: Kinases are expressed as either kinase domains or full length constructs; made in house
Summary of the method: as §1

Lck = target: T14, Lck (Homo sapiens, UniProt P06239); assay: Kinase inhibition assay (33P transfer), Lck; conditions: read-out: Lck-1
T14 construct: Kinases are expressed as either kinase domains or full length constructs; made in house
Summary of the method: as §2

Fyn = target: T15, Fyn (Homo sapiens, UniProt P06241); assay: Kinase inhibition assay (33P transfer), Fyn; conditions: read-out: Fyn-1
T15 construct: Kinases are expressed as either kinase domains or full length constructs; made in house
Summary of the method: as §1

Src = target: T16, Src (Homo sapiens, UniProt P12931); assay: Kinase inhibition assay (33P transfer), Src; conditions: Table 6, Src-1 kinase inhibition class
T16 construct: Kinases are expressed as either kinase domains or full length constructs; made in house
Summary of the method: as §1

Ret-1 = target: T17, Ret-1 (Homo sapiens, UniProt P07949); assay: Kinase inhibition assay (33P transfer), Ret; conditions: Table 6, Ret-1 kinase inhibition class
T17 construct: Kinases are expressed as either kinase domains or full length constructs; made in house
T17 sequence (P07949 29-1114): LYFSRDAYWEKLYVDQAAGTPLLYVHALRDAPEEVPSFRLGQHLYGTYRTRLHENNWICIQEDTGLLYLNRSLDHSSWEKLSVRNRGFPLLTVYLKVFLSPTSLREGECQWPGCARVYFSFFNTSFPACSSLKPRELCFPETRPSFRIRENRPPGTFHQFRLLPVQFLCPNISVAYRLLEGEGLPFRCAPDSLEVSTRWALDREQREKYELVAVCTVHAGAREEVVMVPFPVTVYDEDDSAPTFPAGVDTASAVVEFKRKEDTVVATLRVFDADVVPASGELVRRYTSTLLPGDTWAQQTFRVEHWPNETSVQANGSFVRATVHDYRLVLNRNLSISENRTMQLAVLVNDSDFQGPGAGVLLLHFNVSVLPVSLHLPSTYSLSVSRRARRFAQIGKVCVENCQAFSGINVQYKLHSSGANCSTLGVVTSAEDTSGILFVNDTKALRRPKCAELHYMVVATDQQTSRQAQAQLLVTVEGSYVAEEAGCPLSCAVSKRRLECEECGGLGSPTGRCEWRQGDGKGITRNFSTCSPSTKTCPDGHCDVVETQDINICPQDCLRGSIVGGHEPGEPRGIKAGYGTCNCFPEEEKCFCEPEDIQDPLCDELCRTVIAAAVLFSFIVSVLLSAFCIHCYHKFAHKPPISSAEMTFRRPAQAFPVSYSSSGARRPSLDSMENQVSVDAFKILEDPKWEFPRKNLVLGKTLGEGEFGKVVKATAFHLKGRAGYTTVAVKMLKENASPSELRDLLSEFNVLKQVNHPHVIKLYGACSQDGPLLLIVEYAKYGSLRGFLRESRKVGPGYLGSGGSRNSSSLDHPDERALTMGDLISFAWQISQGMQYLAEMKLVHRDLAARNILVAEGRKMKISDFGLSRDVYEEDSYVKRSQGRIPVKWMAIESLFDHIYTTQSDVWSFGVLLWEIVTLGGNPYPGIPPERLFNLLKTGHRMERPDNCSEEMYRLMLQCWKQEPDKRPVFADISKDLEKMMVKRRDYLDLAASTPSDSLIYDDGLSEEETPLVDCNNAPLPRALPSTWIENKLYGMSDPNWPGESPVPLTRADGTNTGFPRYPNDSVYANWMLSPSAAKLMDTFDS

Kdr = target: T18, Kdr (Homo sapiens, UniProt P35968); assay: Kinase inhibition assay (33P transfer), Kdr; conditions: read-out: KDR-1
T18 construct: Kinases are expressed as either kinase domains or full length constructs; made in house
T18 sequence (P35968 20-1356, species assumed): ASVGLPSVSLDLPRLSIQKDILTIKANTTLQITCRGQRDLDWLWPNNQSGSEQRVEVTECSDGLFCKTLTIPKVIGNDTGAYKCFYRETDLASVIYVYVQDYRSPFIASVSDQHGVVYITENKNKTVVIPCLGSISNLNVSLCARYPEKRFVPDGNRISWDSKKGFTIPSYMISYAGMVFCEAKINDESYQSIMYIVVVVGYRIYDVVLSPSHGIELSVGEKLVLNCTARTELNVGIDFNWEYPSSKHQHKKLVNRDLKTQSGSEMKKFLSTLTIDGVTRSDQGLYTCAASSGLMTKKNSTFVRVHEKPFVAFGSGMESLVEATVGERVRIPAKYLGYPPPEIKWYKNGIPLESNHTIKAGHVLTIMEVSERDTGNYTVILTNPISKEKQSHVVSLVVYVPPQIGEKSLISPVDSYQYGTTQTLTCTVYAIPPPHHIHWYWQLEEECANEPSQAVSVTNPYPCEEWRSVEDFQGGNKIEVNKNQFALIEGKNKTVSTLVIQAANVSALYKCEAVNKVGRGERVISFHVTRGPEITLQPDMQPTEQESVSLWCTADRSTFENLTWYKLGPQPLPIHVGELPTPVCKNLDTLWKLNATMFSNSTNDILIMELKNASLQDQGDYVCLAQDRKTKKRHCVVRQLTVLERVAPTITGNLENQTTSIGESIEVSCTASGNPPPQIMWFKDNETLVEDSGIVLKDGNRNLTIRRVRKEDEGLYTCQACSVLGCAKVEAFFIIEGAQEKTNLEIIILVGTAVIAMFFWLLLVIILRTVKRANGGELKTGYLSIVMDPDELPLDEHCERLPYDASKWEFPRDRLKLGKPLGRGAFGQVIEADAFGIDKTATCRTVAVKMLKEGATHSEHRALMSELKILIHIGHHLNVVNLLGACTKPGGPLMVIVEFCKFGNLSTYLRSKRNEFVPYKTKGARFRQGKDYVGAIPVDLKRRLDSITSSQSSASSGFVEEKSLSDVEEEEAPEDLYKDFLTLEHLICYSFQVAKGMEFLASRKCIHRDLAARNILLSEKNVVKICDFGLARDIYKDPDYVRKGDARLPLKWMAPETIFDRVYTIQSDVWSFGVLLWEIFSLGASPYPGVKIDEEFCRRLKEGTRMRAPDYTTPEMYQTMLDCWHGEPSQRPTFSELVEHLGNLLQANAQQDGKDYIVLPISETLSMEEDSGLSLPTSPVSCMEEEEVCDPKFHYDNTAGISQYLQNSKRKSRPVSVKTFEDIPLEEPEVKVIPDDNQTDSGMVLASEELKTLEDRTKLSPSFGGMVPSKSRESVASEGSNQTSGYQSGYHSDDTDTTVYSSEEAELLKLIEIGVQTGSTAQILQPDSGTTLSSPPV
Summary of the method: as §2

ErbB4 = target: T19, ErbB4 (Homo sapiens, UniProt Q15303); assay: Kinase inhibition assay (33P transfer), ErbB4; conditions: read-out: ErbB4-1
T19 construct: Kinases are expressed as either kinase domains or full length constructs; made in house
T19 sequence (Q15303 26-1308, species assumed): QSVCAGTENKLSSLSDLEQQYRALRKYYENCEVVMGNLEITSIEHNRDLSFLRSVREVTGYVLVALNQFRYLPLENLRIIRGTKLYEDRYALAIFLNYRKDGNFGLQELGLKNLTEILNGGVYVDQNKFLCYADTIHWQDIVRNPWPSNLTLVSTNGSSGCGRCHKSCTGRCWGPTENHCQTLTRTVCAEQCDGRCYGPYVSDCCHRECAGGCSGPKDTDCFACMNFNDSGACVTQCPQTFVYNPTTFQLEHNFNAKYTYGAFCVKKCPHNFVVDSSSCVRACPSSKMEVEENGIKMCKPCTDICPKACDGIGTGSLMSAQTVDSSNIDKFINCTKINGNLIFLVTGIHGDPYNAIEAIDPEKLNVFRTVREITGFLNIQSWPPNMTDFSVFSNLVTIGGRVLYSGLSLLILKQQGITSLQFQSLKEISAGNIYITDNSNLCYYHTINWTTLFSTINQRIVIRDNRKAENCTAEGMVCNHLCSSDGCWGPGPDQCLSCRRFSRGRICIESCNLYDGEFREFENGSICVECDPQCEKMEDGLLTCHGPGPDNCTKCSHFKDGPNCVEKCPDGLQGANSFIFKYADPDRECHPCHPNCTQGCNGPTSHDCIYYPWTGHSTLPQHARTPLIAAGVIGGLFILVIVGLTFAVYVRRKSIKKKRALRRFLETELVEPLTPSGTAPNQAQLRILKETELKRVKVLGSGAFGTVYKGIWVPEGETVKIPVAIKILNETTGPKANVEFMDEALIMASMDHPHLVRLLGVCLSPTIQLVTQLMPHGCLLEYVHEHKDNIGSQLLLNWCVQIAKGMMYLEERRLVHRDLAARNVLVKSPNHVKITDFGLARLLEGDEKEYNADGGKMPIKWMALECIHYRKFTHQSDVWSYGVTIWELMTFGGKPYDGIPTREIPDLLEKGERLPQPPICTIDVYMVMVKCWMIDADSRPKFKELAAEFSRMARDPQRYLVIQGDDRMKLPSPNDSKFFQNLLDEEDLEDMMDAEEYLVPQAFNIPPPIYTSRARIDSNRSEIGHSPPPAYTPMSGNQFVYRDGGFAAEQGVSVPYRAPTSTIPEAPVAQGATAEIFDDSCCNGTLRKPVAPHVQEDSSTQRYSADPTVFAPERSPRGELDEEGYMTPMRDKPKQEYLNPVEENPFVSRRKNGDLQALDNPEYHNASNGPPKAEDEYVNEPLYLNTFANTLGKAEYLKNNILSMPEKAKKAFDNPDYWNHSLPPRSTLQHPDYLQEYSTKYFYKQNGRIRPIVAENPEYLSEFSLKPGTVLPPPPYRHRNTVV

SMILES | IC50 (Lyn) [µM] | IC50 (ErbB2) [µM] | IC50 (EGFR) [µM] | IC50 (Flt-1) [µM] | IC50 (Zap-70) [µM] | IC50 (IGFR-1) [µM] | IC50 (AKT) [µM] | IC50 (Hck-1) [µM] | IC50 (Itk) [µM] | IC50 (Tek) [µM] | IC50 (PDGFRB) [µM] | IC50 (FGFR1) [µM] | IC50 (c-Met) [µM] | IC50 (Lck) [µM] | IC50 (Fyn) [µM] | IC50 (Src) [µM] | IC50 (Ret-1) [µM] | IC50 (Kdr) [µM] | IC50 (ErbB4) [µM]
COc1cc(Nc2ncnc(-n3c(NCc4ccccc4F)nc4ccccc43)n2)cc(OC)c1OC [Compound 512] | < 0.798 | 4.79 to 6.98 | > 8.97 | 0.798 to 4.79 | > 8.97 | > 8.97 | > 8.97 | > 8.97 | > 8.97 | > 8.97 | < 0.798 | < 0.798 | > 8.97 | 0.798 to 4.79 | > 8.97 | > 8.97 | < 0.798 | < 0.798 | 0.798 to 4.79
COc1cc(Nc2ncnc(-n3c(NCc4ccccc4Cl)nc4ccccc43)n2)cc(OC)c1OC [Compound 943] | 0.772 to 4.63 | > 8.69 | > 8.69 | 0.772 to 4.63 | 4.63 to 6.76 | > 8.69 | > 8.69 | > 8.69 | > 8.69 | 6.76 to 8.69 | < 0.772 | 0.772 to 4.63 | > 8.69 | 0.772 to 4.63 | > 8.69 | > 8.69 | < 0.772 | < 0.772 | 6.76 to 8.69
COc1cc(Nc2ncnc(Nc3ccc4c(cnn4Cc4ccccc4)c3)n2)cc(OC)c1OC [Compound 177] | < 0.827 | < 0.827 | < 0.827 | 0.827 to 4.96 | 4.96 to 7.24 | 0.827 to 4.96 | 4.96 to 7.24 | 0.827 to 4.96 | 7.24 to 9.31 | 0.827 to 4.96 | < 0.827 | 4.96 to 7.24 | 0.827 to 4.96 | < 0.827 | < 0.827 | < 0.827 | < 0.827 | 0.827 to 4.96 | < 0.827

Second part, the compound after the results:

IC50 (Lyn) [µM] | IC50 (ErbB2) [µM] | IC50 (EGFR) [µM] | IC50 (Flt-1) [µM] | IC50 (Zap-70) [µM] | IC50 (IGFR-1) [µM] | IC50 (AKT) [µM] | IC50 (Hck-1) [µM] | IC50 (Itk) [µM] | IC50 (Tek) [µM] | IC50 (PDGFRB) [µM] | IC50 (FGFR1) [µM] | IC50 (c-Met) [µM] | IC50 (Lck) [µM] | IC50 (Fyn) [µM] | IC50 (Src) [µM] | IC50 (Ret-1) [µM] | IC50 (Kdr) [µM] | IC50 (ErbB4) [µM] | SMILES
< 0.779 | 0.779 to 4.67 | 0.779 to 4.67 | < 0.779 | > 8.76 | 6.82 to 8.76 | > 8.76 | > 8.76 | > 8.76 | 4.67 to 6.82 | < 0.779 | < 0.779 | > 8.76 | < 0.779 | 0.779 to 4.67 | 0.779 to 4.67 | < 0.779 | < 0.779 | 4.67 to 6.82 | COc1cc(Nc2ncnc(-n3c(N[C@@H](CO)c4ccccc4)nc4ccccc43)n2)cc(OC)c1OC [Compound 1036]
< 1.14 | > 12.9 | > 12.9 | > 12.9 | > 12.9 | > 12.9 | > 12.9 | > 12.9 | 6.87 to 10 | > 12.9 | 1.14 to 6.87 | > 12.9 | 6.87 to 10 | < 1.14 | > 12.9 | > 12.9 | < 1.14 | 1.14 to 6.87 | > 12.9 | CC(C)Nc1ncccc1-c1ncnc(Nc2ccc(C(N)=O)cc2)n1 [Compound 1084]
